Test results published in patent US9274101B2 (BIOLOG, Inc., priority 2001, dated 2016).
Like-named read-outs stand apart in the source and are kept apart here. Where a SMILES comes first, the peptide text is derived from it. Bridges are numbered along the chain shown (N, C = ends). [ ]: non-standard residue; d: D form. The star is where a group is joined. Ileψ(thiazoline)Cys = CC[C@H](C)[C@H](N)C1=N[C@H](C(=O)*)CS1; dOrn = NCCC[C@@H](N)C(=O)O

Experiments:
E. coli (MG1655) = assay: Sensitivity in ES1, ES2, ES3 MICROPLATE panels in the presence of vancomycin or sulfamethoxazole (synergy/antagonism); format: cell-based, Escherichia coli
E. coli MG1655 [1] = assay: PM kinetic profiles of antimicrobials, S-O-R scoring and dendrogram; format: cell-based, Escherichia coli
E. coli MG1655 [2] = format: cell-based, Escherichia coli
TK-1 cells = TK-1 cells in PM1 and PM2 plates, with or without 0.5 mM sodium pyruvate; format: cell-based, mouse
Experimental: In this Example, methods for testing a murine T lymphoma cells (Butcher et al., Eur. J. Immunol., 10:556-561 [1980]), for their ability to use multiple carbon sources are described. The methods used to culture the TK-1 lymphoma cell line were similar to those used to culture HL-60 cells, as described in Example 27.
TK-1 cells were grown in Falcon tissue culture flasks with vented tops. Culture medium was RPMI 1640 medium (Invitrogen 11875) with 4.5 g/L glucose, 2 mM L-glutamine, 1 mM sodium pyruvate, 0.1 mM nonessential amino acids (NEAA), 0.05 mM 2-mercaptoethanol (2ME), 2 g/L sodium bicarbonate, 5 mg/L phenol red, 50 U/mL penicillin, 50 μg/mL streptomycin, and 10% (v/v) heat inactivated fetal bovine serum (HI FBS, Invitrogen 16140). The cells were seeded at 3×10^5/mL, subcultured at 3 days after initiation of culture to 10^6 cells/mL and used 24 hours later. During all incubations, the cells were kept in an atmosphere of 5% CO2, 90-100% humidity, and 37° C.
A viable cell count was obtained by trypan blue exclusion and an appropriate volume of the cell suspension was placed in a polypropylene centrifuge tube. The cells were washed in DPBS and then resuspended to two-thirds the final volume needed in Dulbecco ? s Modified Eagle ? s Medium (DME, Sigma D5030) with the supplements listed in Table 17, as well as 2-ME, sodium pyruvate and NEAA, and including 10% HI FBS, but without glucose, L-glutamine, sodium pyruvate, and phenol red. This medium is termed DME-RTK. An aliquot was counted by trypan blue exclusion and the cell density was adjusted to 1×10^6/mL. Fifty μL of DME-RTK were added to each well of the appropriate number of half area, 96-well plates (PM1 and PM2 MICROPLATE testing plates). The cells were divided into two lots and one lot received a 1/100 dilution of 100 mM sodium pyruvate (final concentration, 0.5 mM). Cells from both lots were plated at a final cell density of 5×10^4/well (50 μL/well). For each plate containing chemicals and cells, a second, control plate containing only chemicals was prepared. Plates were incubated at 5% CO2, 90-100% humidity, and 37° C. for 1 hour prior to addition of the MTS/MPMS colorimetric reagent (5 μL/well). The color formed in each well 24 hours after addition of the colorimetric reagent, was measured with a plate reader at 490 nm with a reference wavelength of 650 nm. OD values from the control plate were subtracted from the OD values obtained with cells prior to normalizing the data to % negative control.

E. coli MG1655 [3] = format: cell-based, Escherichia coli; remark: listed apart in the source
[4] = test system: Salmonella typhimurium auxotrophs hisF645 and pyrCΔ73; format: cell-based
[5] = in the presence of 0.5 mM sodium pyruvate
[6] = in the presence of 10 μg/ml vancomycin
[7] = in the presence of 235 μg/ml sulfamethoxazole
[8] = 1× level of each antimicrobial, 7 PMs, 48 hours

Molecule: CCn1cc(C(=O)O)c(=O)c2ccc(C)nc21 [nalidixic acid]
- change of sensitivity to the panel compound (E. coli (MG1655)): increased sensitivity
- position in dendrogram of PM response profiles (FIG. 9) (E. coli MG1655 [1]): did not cluster with the other two DNA gyrase inhibiting chemicals

Molecule: N[C@@H](CCO)C(=O)O [L-homoserine]
- suitability as nitrogen source (growth, purple color) (E. coli MG1655 [2]): not suitable
- response of TK-1 cells (TK-1 cells; [5]): lost responses

Molecule: [Cl][Ni][Cl] [nickel chloride]
- change of sensitivity to the panel compound (E. coli (MG1655)): increased sensitivity

Molecule: Cc1nnc(SCC2=C(C(=O)O)N3C(=O)[C@@H](NC(=O)Cn4cnnn4)[C@H]3SC2)s1 [cefazolin]
- change of sensitivity to the panel compound (E. coli (MG1655); [6]): increased sensitivity
- change of sensitivity to the panel compound (E. coli (MG1655); [7]): increased sensitivity

Molecule: O=C(O)CCCO [γ-hydroxybutyric acid]
- response of TK-1 cells (TK-1 cells): lost responses

Molecule: [Cl][Co][Cl] [cobalt chloride]
- change of sensitivity to the panel compound (E. coli (MG1655)): increased sensitivity

Molecule: polymyxin B
- position in dendrogram of PM response profiles (FIG. 9) (E. coli MG1655 [1]): more closely resembled the multiple target antimicrobials

Molecule: NCCC[C@H](N)C(=O)O [L-ornithine]
- suitability as nitrogen source (growth, purple color) (E. coli MG1655 [2]): not suitable
- response of TK-1 cells (TK-1 cells; [5]): lost responses

Molecule: CO[C@@H]1OC[C@@H](O)[C@H](O)[C@H]1O [β-methyl xyloside]
- response of TK-1 cells (TK-1 cells; [5]): gained responses

Molecule: OC[C@H]1O[C@@H](Oc2ccc(O)cc2)[C@H](O)[C@@H](O)[C@@H]1O [arbutin]
- response of TK-1 cells (TK-1 cells; [5]): gained responses

Molecule: CO[C@@H]1[C@@H](OC(N)=O)[C@@H](O)[C@H](Oc2ccc3c(O)c(NC(=O)c4ccc(O)c(CC=C(C)C)c4)c(=O)oc3c2C)OC1(C)C [novobiocin]
- change of sensitivity to the panel compound (E. coli (MG1655)): increased resistance
- change of sensitivity to the panel compound (E. coli (MG1655); [6]): increased sensitivity

Molecule: coumermycin
- position in dendrogram of PM response profiles (FIG. 9) (E. coli MG1655 [1]): clustered

Molecule: [Cl][Cr]([Cl])[Cl] [chromium chloride]
- change of sensitivity to the panel compound (E. coli (MG1655)): increased sensitivity

Molecule: CCn1cc(C(=O)O)c(=O)c2cc3c(cc21)OCO3 [oxolinic acid]
- position in dendrogram of PM response profiles (FIG. 9) (E. coli MG1655 [1]; [8]): clustered

Molecule: Nc1ccc(S(=O)(=O)Nc2nccs2)cc1 [sulfathiazole]
- position in dendrogram of PM response profiles (FIG. 9) (E. coli MG1655 [1]; [8]): more closely resembled the multiple target antimicrobials

Molecule: CC[C@H](C)[C@H](N)C1=N[C@H](C(=O)N[C@@H](CC(C)C)C(=O)N[C@H](CCC(=O)O)C(=O)N[C@H](C(=O)N[C@H]2CCCCNC(=O)[C@H](CC(N)=O)NC(=O)[C@@H](CC(=O)O)NC(=O)[C@H](Cc3cnc[nH]3)NC(=O)[C@@H](Cc3ccccc3)NC(=O)[C@H]([C@@H](C)CC)NC(=O)[C@@H](CCCN)NC2=O)[C@@H](C)CC)CS1 [bacitracin] ({Ileψ(thiazoline)Cys}-L[dE]IK[dOrn]I[dF]H[dD]N; lactam 4-C)
- position in dendrogram of PM response profiles (FIG. 9) (E. coli MG1655 [1]; [8]): cluster

Molecule: Nc1nc2c(ncn2[C@@H]2O[C@H](CO)[C@@H](O)[C@H]2OP(=O)(O)O)c(=O)[nH]1 [guanosine 2′-monophosphate]
- suitability as phosphorus source (growth, purple color) (E. coli MG1655 [3]): positive
- growth stimulation (well color) [4]: turned weakly purple

Molecule: NC(=O)c1cc[n+](CC2=C(C(=O)O)N3C(=O)[C@@H](NC(=O)[C@@H](c4ccccc4)S(=O)(=O)[O-])[C@H]3SC2)cc1 [cefsulodin]
- change of sensitivity to the panel compound (E. coli (MG1655); [7]): increased sensitivity

Molecule: N[C@@H](Cc1ccccc1)C(=O)O [L-phenylalanine]
- suitability as nitrogen source (growth, purple color) (E. coli MG1655 [2]): not suitable
- response of TK-1 cells (TK-1 cells; [5]): gained responses

Molecule: Nc1ccn([C@@H]2O[C@H](COP(=O)(O)O)[C@@H](O)[C@H]2O)c(=O)n1 [cytidine 5′-monophosphate]
- suitability as phosphorus source (growth, purple color) (E. coli MG1655 [3]): positive
- growth stimulation (well color) [4]: turned purple

Molecule: O=c1ccn([C@@H]2O[C@H](COP(=O)(O)O)[C@@H](O)[C@H]2O)c(=O)[nH]1 [uridine 5′-monophosphate]
- suitability as phosphorus source (growth, purple color) (E. coli MG1655 [3]): positive
- growth stimulation (well color) [4]: turned purple

Molecule: CC(=O)O[C@H]1C[C@@]2(C)[C@@H](C[C@@H](O)[C@H]3[C@@]4(C)CC[C@@H](O)[C@@H](C)[C@@H]4CC[C@@]32C)/C1=C(\CCC=C(C)C)C(=O)O [fusidic acid]
- change of sensitivity to the panel compound (E. coli (MG1655); [6]): increased sensitivity

Molecule: CC(=O)OCC1=C(C(=O)O)N2C(=O)[C@@H](NC(=O)Cc3cccs3)[C@H]2SC1 [cephalothin]
- change of sensitivity to the panel compound (E. coli (MG1655); [6]): increased sensitivity
- change of sensitivity to the panel compound (E. coli (MG1655); [7]): increased sensitivity
- position in dendrogram of PM response profiles (FIG. 9) (E. coli MG1655 [1]; [8]): cluster

Molecule: COc1cc(Cc2cnc(N)nc2N)cc(OC)c1OC [trimethoprim]
- change of sensitivity to the panel compound (E. coli (MG1655); [6]): increased sensitivity
- change of sensitivity to the panel compound (E. coli (MG1655); [7]): increased sensitivity

Molecule: Nc1ncnc2c1ncn2[C@@H]1O[C@H](COP(=O)(O)O)[C@@H](O)[C@H]1O [adenosine 5′-monophosphate]
- suitability as phosphorus source (growth, purple color) (E. coli MG1655 [3]): not suitable
- growth stimulation (well color) [4]: turned weakly purple

Molecule: O=C(Cc1cccs1)N[C@@H]1C(=O)N2C(C(=O)[O-])=C(C[n+]3ccccc3)CS[C@H]12 [cephaloridine]
- change of sensitivity to the panel compound (E. coli (MG1655); [7]): increased sensitivity

Molecule: O=C(O)c1ccc(O)cc1 [4-hydroxy-benzoic acid]
- response of TK-1 cells (TK-1 cells; [5]): gained responses

Molecule: Nc1nc2c(ncn2[C@@H]2O[C@H](COP(=O)(O)O)[C@@H](O)[C@H]2O)c(=O)[nH]1 [guanosine 5′-monophosphate]
- suitability as phosphorus source (growth, purple color) (E. coli MG1655 [3]): positive
- growth stimulation (well color) [4]: turned weakly purple

Molecule: C[C@@H]1O[C@@H]1P(=O)(O)O [phosphomycin]
- position in dendrogram of PM response profiles (FIG. 9) (E. coli MG1655 [1]; [8]): cluster

Molecule: N[C@@H](C(=O)N[C@@H]1C(=O)N2C(C(=O)O)=C(Cl)CS[C@H]12)c1ccccc1 [cefaclor]
- change of sensitivity to the panel compound (E. coli (MG1655); [7]): increased sensitivity

Molecule: Nc1ccn([C@@H]2O[C@H](CO)[C@@H](OP(=O)(O)O)[C@H]2O)c(=O)n1 [cytidine 3′-monophosphate]
- suitability as phosphorus source (growth, purple color) (E. coli MG1655 [3]): positive
- growth stimulation (well color) [4]: turned purple

Molecule: Nc1ncnc2c1ncn2[C@@H]1O[C@H](CO)[C@@H](O)[C@H]1OP(=O)(O)O [adenosine-2′-monophosphate]
- suitability as phosphorus source (growth, purple color) (E. coli MG1655 [3]): positive
- growth stimulation (well color) [4]: turned weakly purple

Molecule: [H]/N=C(/N)N[C@H]1[C@H](O)[C@@H](O)[C@H](O[C@@H]2O[C@@H](C)[C@](O)(C=O)[C@H]2O[C@@H]2O[C@@H](CO)[C@H](O)[C@@H](O)[C@@H]2NC)[C@@H](N/C(N)=N\[H])[C@@H]1O [streptomycin]
- position in dendrogram of PM response profiles (FIG. 9) (E. coli MG1655 [1]; [8]): cluster

Molecule: C/C=C/C/C=C/CCC(=O)[C@H]1O[C@H]1C(N)=O [cerulenin]
- position in dendrogram of PM response profiles (FIG. 9) (E. coli MG1655 [1]; [8]): more closely resembled the multiple target antimicrobials

Molecule: CO[C@@]1(NC(=O)Cc2cccs2)C(=O)N2C(C(=O)O)=C(COC(N)=O)CS[C@@H]21 [cefoxitin]
- change of sensitivity to the panel compound (E. coli (MG1655); [6]): increased sensitivity

Molecule: O=[N+]([O-])c1ncc[nH]1 [azomycin]
- change of sensitivity to the panel compound (E. coli (MG1655)): increased sensitivity

Molecule: pectin
- response of TK-1 cells (TK-1 cells; [5]): gained responses

Molecule: O=C(O)CCCCCCCCC(=O)O [sebacic acid]
- response of TK-1 cells (TK-1 cells; [5]): gained responses
